From patent EP0429856A2, “Pharmaceutical preparation containing a metal salt of ibuprofen and process for making same” (Dolorgiet GmbH & Co. KG, priority 1989, dated 1991)

Assay: Solubility of ibuprofen salts in saturated solutions at room temperature (HPLC, UV detection)
Excerpt: Zur Bestimmung der Löslichkeit der Ibuprofen-Salze werden bei Raumtemperatur gesättigte Lösungen hergestellt. Ein aliguoter Teil dieser Lösungen wird mit einem mit der Lösung mischbaren Lösungsmittel verdünnt und der Gehalt an Ibuprofen mittels HPLC über eine Reversed-Phase-Säule und UV-Detektion bestimmt.

[1] = 1,2-Propandiol/Glycerin/Wasser (2/4/3;v/v/v)
[2] = 1,2-Propandiol/Polyethylenglykol 400/Wasser (5/3/6;v/v/v)
[3] = Cabrylic/Capric Triglyceride (Miglyol 810)
[4] = Caprylic/Capric Triglyceride (Miglyol 812)
[5] = Ethanol/1,2-Propandiol/Wasser (1/4/4;v/v/v)
[6] = Polyoxyethylen-(7)-glycerin-kokosnußöfettsäure-ester
[7] = Polyoxyethylierte Olein-Glyceride (Labrafil M 1944 CS)

| Substance | Löslichkeit von Ibuprofen-Salzen bei Raumtemperatur (1,2-Propandiol) | Löslichkeit von Ibuprofen-Salzen bei Raumtemperatur [1] | Löslichkeit von Ibuprofen-Salzen bei Raumtemperatur [2] | Löslichkeit von Ibuprofen-Salzen bei Raumtemperatur [3] | Löslichkeit von Ibuprofen-Salzen bei Raumtemperatur [4] | Löslichkeit von Ibuprofen-Salzen bei Raumtemperatur (Ethanol) [mg Ibuprofen/ml] | Löslichkeit von Ibuprofen-Salzen bei Raumtemperatur [5] | Löslichkeit von Ibuprofen-Salzen bei Raumtemperatur (Glycerin) | Löslichkeit von Ibuprofen-Salzen bei Raumtemperatur (Glycerinmonoricinoleat) | Löslichkeit von Ibuprofen-Salzen bei Raumtemperatur (Isopropylmyristat) [mg Ibuprofen/ml] | Löslichkeit von Ibuprofen-Salzen bei Raumtemperatur (Paraffinum supl.) | Löslichkeit von Ibuprofen-Salzen bei Raumtemperatur (Polyethylenglykol 400) [mg Ibuprofen/ml] | Löslichkeit von Ibuprofen-Salzen bei Raumtemperatur [6] [mg Ibuprofen/ml] | Löslichkeit von Ibuprofen-Salzen bei Raumtemperatur [7] [mg Ibuprofen/ml] | Löslichkeit von Ibuprofen-Salzen bei Raumtemperatur (Wasser) |
| --- | --- | --- | --- | --- | --- | --- | --- | --- | --- | --- | --- | --- | --- | --- | --- |
| Ibuprofen-Magnesiumsalz [Ibuprofen-Mg] | 160 mg Ibuprofen/ml | 250 mg Ibuprofen/ml | 125 mg Ibuprofen/ml | 35 mg Ibuprofen/ml | 17 mg Ibuprofen/ml | 500 | 330 mg Ibuprofen/ml | 8 mg Ibuprofen/ml | 450 mg Ibuprofen/ml | 260 | 0,4 mg Ibuprofen/ml | 40 | 480 | 380 | 7 mg Ibuprofen/ml |
| Aluminiumdiibuprofen (1 : 2) [Ibuprofen-Al (2 : 1)] | 0,8 mg Ibuprofen/ml | < 0,1 mg Ibuprofen/ml | < 0,1 mg Ibuprofen/ml | 0,5 mg Ibuprofen/ml | 0,3 mg Ibuprofen/ml | 2 | < 0,1 mg Ibuprofen/ml | < 0,1 mg Ibuprofen/ml | 4,5 mg Ibuprofen/ml | 1 | < 0,1 mg Ibuprofen/ml | 2 | 6 | 4 | < 0,1 mg Ibuprofen/ml |
